Measured values as given in the supplement of paper PMC10307832.

How the values were obtained:
Assay in all cases: relative viability (nuclei count vs DMSO), 5 days (fraction); higher = more cells survive
[1] = compound: O[C@H]1CC[C@H](Nc2ncc3nc(Nc4c(F)cc(F)cc4F)n([C@H]4CCOC4)c3n2)CC1 [Tanzisertib] + CC(=O)c1c(C)c2cnc(Nc3ccc(N4CCNCC4)cn3)nc2n(C2CCCC2)c1=O [Palbociclib] (partner 0.5 µM)
How it was run: (§1)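 Lung cancer cell lines in 1536-well plates got either a single drug or a fixed anchor-drug dose together with five library-drug doses (not always all listed) in √10 steps, by pin tool, on the day after seeding. Nuclei were counted after 5 days, and relative viability is the treated-to-vehicle ratio of nuclei counts. Values are medians of duplicate plates.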

[2] = compound: C[C@@H](N)c1ccc(C(=O)Nc2ccnc3[nH]ccc23)cc1 + CC(=O)c1c(C)c2cnc(Nc3ccc(N4CCNCC4)cn3)nc2n(C2CCCC2)c1=O [Palbociclib] (partner 0.5 µM)
How it was run: as §1

[3] = compound: C1CNCCC1C2=CC(=NN2)C3=CC=NC=C3 + CC1(C)CCC(c2ccc(Cl)cc2)=C(CN2CCN(c3ccc(C(=O)NS(=O)(=O)c4ccc(N[C@H](CCN5CCOCC5)CSc5ccccc5)c(S(=O)(=O)C(F)(F)F)c4)cc3)CC2)C1 [Navitoclax] (partner 0.5 µM)
How it was run: as §1

[4] = compound: C1CNCCC1C2=CC(=NN2)C3=CC=NC=C3 + NC(=O)Nc1cc(-c2cccc(F)c2)sc1C(=O)N[C@H]1CCCNC1 [AZD7762] (partner 0.2 µM)
How it was run: as §1

Cell Line | relative viability ([1]; first compound 0.08 µM) | relative viability ([1]; first compound 0.253 µM) | relative viability ([1]; first compound 0.8 µM) | relative viability ([1]; first compound 2.53 µM) | relative viability ([1]; first compound 8 µM) | relative viability ([2]; first compound 0.04 µM) | relative viability ([2]; first compound 0.1265 µM) | relative viability ([2]; first compound 0.4 µM) | relative viability ([2]; first compound 1.265 µM) | relative viability ([2]; first compound 4 µM) | relative viability ([3]; first compound 0.08 µM) | relative viability ([3]; first compound 0.8 µM) | relative viability ([3]; first compound 2.53 µM) | relative viability ([3]; first compound 8 µM) | relative viability ([4]; first compound 0.08 µM) | relative viability ([4]; first compound 0.8 µM) | relative viability ([4]; first compound 2.53 µM) | relative viability ([4]; first compound 8 µM)
NCI-H2087 | 0.256 | 0.308 | 0.254 | 0.235 | 0.255 | 0.24 | 0.263 | 0.299 | 0.254 | 0.28 | 1.04 | 0.973 | 0.969 | 0.903 | 1.18 | 1.46 | 1.33 | 1.22
EMC-BAC-2 | 0.537 | 0.513 | 0.463 | 0.509 | 0.495 | 0.473 | 0.501 | 0.474 | 0.48 | 0.436 | 1.11 | 1.37 | 1.25 | 1.14 | 0.892 | 1.14 | 1.16 | 1.12
NCI-H1355 | 0.435 | 0.398 | 0.4 | 0.438 | 0.382 | 0.441 | 0.422 | 0.403 | 0.427 | 0.393 | 0.919 | 0.813 | 1.09 | 0.871 | 0.682 | 0.801 | 0.822 | 0.796
NCI-H23 | 0.479 | 0.53 | 0.512 | 0.493 | 0.514 | 0.532 | 0.644 | 0.545 |  | 0.441 | 0.711 | 0.908 | 1.09 | 0.948 | 0.329 |  | 0.326 | 0.308
NCI-H1651 | 0.552 | 0.537 | 0.508 | 0.502 | 0.519 | 0.509 | 0.567 | 0.554 | 0.601 | 0.567 | 0.897 | 1.07 | 0.963 | 1.16 | 0.463 | 0.427 | 0.488 | 0.543
NCI-H1975 | 0.735 | 0.575 | 0.515 | 0.562 | 0.549 | 0.808 | 0.673 | 0.607 | 0.2 | 0.321 | 1.18 | 1.2 | 1.19 | 1.09 | 0.758 | 0.599 | 0.742 | 0.679
HCC-44 | 1.02 | 1.03 | 0.94 | 0.955 | 1.1 | 0.929 | 0.96 | 1.02 | 1.15 | 1.02 | 0.931 | 1 | 1.07 | 0.971 | 0.976 | 1.04 | 1.04 | 1.04
LOU-NH91 | 0.584 | 0.558 | 0.532 | 0.556 | 0.414 | 0.581 | 0.527 | 0.533 | 0.536 | 0.448 | 0.653 | 0.762 | 0.866 | 0.703 | 0.797 | 0.739 | 0.853 | 0.773
NCI-H441 | 0.236 | 0.224 | 0.241 | 0.194 | 0.154 | 0.233 | 0.265 | 0.25 | 0.237 | 0.263 |  | 0.915 | 0.836 | 0.704 | 0.967 | 1.18 | 0.948 | 1.19
